Test results reported in US20130331389A1, “Methods and Compositions for Cardiomyocyte Replenishment by Endogenous and Progenitor Stem Cells” (NATIONAL CHENG KUNG UNIVERSITY, priority 2012, published 2013).

Assays:
[1] = system: Nkx2.5; experiment: Quantitative RT-PCR of Nkx2.5 in MI heart and in isolated cardiac Sca-1+ cells; type: in vivo, mouse
Method: (§1) To induce Cre recombination to achieve GFP labeling of cardiomyocytes, tamoxifen (Sigma) was dissolved in sunflower oil (Sigma) at a concentration of 5 mg/ml. The tamoxifen solution was injected intraperitoneally into M/Z mice daily at a dosage of 40 μg per 1 g body weight for 14 days, and the same dosage was injected twice daily for short-term labeling using methods known in the art (Laugwitz, K.-L. et al. Nature 433, 647-653 (2005)). All experimental conditions were optimized prior to the PGE2, indomethacin and TGF-β Type I Receptor Kinase Inhibitor II (ALK5 Inhibitor II, ALK5i, Merck) treatments. The mice treated with PGE2 or PGI2 (Vegiopoulos, A. et al. Science 328, 1158-1161 (2010)) (both from Sigma) were injected intraperitoneally with 3.33 ng of drug per 1 g of body weight dissolved in absolute ethanol twice daily. […]
The total RNA isolated from the ischemic region or remote area of MI hearts was reverse transcribed using the SuperScript III (Invitrogen) system according to the manufacturer's protocol. For quantitative PCR, the SYBR Green reagent (Maestrogen) was used according to the manufacturer's protocol. The analysis of relative gene expression was performed using the 2̂[−delta delta Ct] method and sequence-specific primers designed for semi-quantitative PCR and real-time RT-PCR (FIG. 11). […]

[2] = system: EP2; experiment: Quantitative RT-PCR of PGE2 receptors at infarct region of MI heart; type: in vivo, mouse
Method: as §1
The total RNA isolated from the ischemic region or remote area of MI hearts was reverse transcribed using the SuperScript III (Invitrogen) system according to the manufacturer's protocol. For quantitative PCR, the SYBR Green reagent (Maestrogen) was used according to the manufacturer's protocol. The analysis of relative gene expression was performed using the 2̂[−delta delta Ct] method and sequence-specific primers designed for semi-quantitative PCR and real-time RT-PCR (FIG. 11).

CCCCC[C@H](O)/C=C/C1C(O)CC(=O)C1C/C=C\CCCC(=O)O (stereo partly drawn) [PGE2, (5Z,11α,13E,15S)-7-[3-hydroxy-2-(3-hydroxyoct-1-enyl)-5-oxo-cyclopentyl]hept-5-enoic acid]
expression of Nkx2.5 in Sca-1+ cells ([1]; cardiac Sca-1+ cells isolated on day 3 after injury): elevated
expression of Nkx2.5 in the MI heart ([1]; young mice, fold change normalized to sham): enhances
expression of PGE2 receptor EP2 in hearts after MI [2]: significantly induced
